Measured values reported in US6737383B1, “Herbicidal oxadiazolidines” (priority 1999, dated 2004).

How the values were obtained:
bedstraw = test: Test B pre/postemergence bedstraw; format: in vivo, Galium aparine
Summary of the method: (§1)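 Test chemicals in a non-phytotoxic solvent mixture with surfactant were sprayed preemergence onto planted seeds and postemergence onto plants 2 to 18 cm tall (1- to 4-leaf stage). After twelve to sixteen days in a greenhouse, injury was visually rated against untreated controls from 0 (no effect) to 10 (complete control).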

blackgrass = test: Test B pre/postemergence blackgrass; format: in vivo, Alopecurus myosuroides
Summary of the method: as §1

surinam grass = test: Test B pre/postemergence surinam grass; format: in vivo, Brachiaria decumbens
Summary of the method: as §1

cocklebur = test: Test B pre/postemergence cocklebur; format: in vivo, Xanthium strumarium
Summary of the method: as §1

crabgrass = test: Test B pre/postemergence crabgrass; format: in vivo, Digitaria sanguinalis
Summary of the method: as §1

giant foxtail = test: Test B pre/postemergence giant foxtail; format: in vivo, Setaria faberii
Summary of the method: as §1

morningglory = test: Test B pre/postemergence morningglory; format: in vivo, Ipomoea hederacea
Summary of the method: as §1

pigweed = test: Test B pre/postemergence pigweed; format: in vivo, Amaranthus retroflexus
Summary of the method: as §1

sugar beet = test: Test B pre/postemergence sugar beet; format: in vivo, Beta vulgaris
Summary of the method: as §1

velvetleaf = test: Test B pre/postemergence velvetleaf; format: in vivo, Abutilon theophrasti
Summary of the method: as §1

wheat = test: Test B pre/postemergence wheat; format: in vivo, Triticum aestivum
Summary of the method: as §1

wild oat = test: Test B pre/postemergence wild oat; format: in vivo, Avena fatua
Summary of the method: as §1

purple nutsedge = test: Test B pre/postemergence purple nutsedge; format: in vivo, Cyperus rotundus
Summary of the method: as §1

rice = test: Test B flood test rice; format: in vivo, Oryza sativa
Summary of the method: (§2)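 Plants were grown to the 2-leaf stage before treatment with test chemical, then held in a greenhouse for twelve to sixteen days. Injury was visually rated against untreated controls on a 0–10 scale, where 0 is no effect and 10 is complete control.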

duck salad = test: Test B flood test duck salad; format: in vivo, Heteranthera limosa
Summary of the method: as §2

bamyardgrass = test: Test B flood test barnyardgrass; format: in vivo, Echinochloa crus-galli
Summary of the method: as §2

[1] = Postemergence, Rate 125 g/ha, scale of 0 to 10 where 0 is no effect and 10 is complete control
[2] = Preemergence, Rate 62 g/ha, scale of 0 to 10 where 0 is no effect and 10 is complete control
[3] = Preemergence, Rate 125 g/ha, 0 is no effect, 10 is complete control
[4] = Preemergence, Rate 250 g/ha, scale 0 to 10, 0 is no effect, 10 is complete control
[5] = Preemergence, Rate 500 g/ha, scale 0 to 10 (0 no effect, 10 complete control)
[6] = Rate 250 g/ha, Postemergence, scale 0 to 10, 0 is no effect, 10 is complete control
[7] = Rate 62 g/ha, Postemergence, scale of 0 to 10 where 0 is no effect and 10 is complete control
[8] = Rate 500 g/ha, Postemergence, scale 0 to 10
[9] = Postemergence (flood test species), Rate 125 g/ha, scale of 0 to 10 where 0 is no effect and 10 is complete control
[10] = Rate 62 g/ha, Postemergence section, flood test species, scale of 0 to 10 where 0 is no effect and 10 is complete control
[11] = Rate 250 g/ha, Postemergence (flood test), scale 0 to 10, 0 is no effect, 10 is complete control
[12] = Rate 500 g/ha, listed under Postemergence (flood test species), scale 0 to 10

Cc1ccccc1-n1c(=O)on(C(=O)N(c2cccc(F)c2F)C(C)C)c1=O [Compound 171]
10: Crabgrass plant response rating (crabgrass; [4]) | Crabgrass plant response rating (crabgrass; [5]) | Giant foxtail plant response rating (giant foxtail; [4]) | Giant foxtail plant response rating (giant foxtail; [5])
5: B. signalgrass plant response rating (surinam grass; [5]) | Giant foxtail plant response rating (giant foxtail; [2]) | Redroot pigweed plant response rating (pigweed; [4]) | Redroot pigweed plant response rating (pigweed; [8]) | Wild oats plant response rating (wild oat; [5])
4: Wild oats plant response rating (wild oat; [4])
0: Bedstraw plant response rating (bedstraw; [2]) | Bedstraw plant response rating (0 to 10 scale) (bedstraw; [3]) | Bedstraw plant response rating (bedstraw; [4]) | Bedstraw plant response rating (bedstraw; [5]) | Blackgrass plant response rating (blackgrass; [1]) | Blackgrass plant response rating (blackgrass; [2]) | Blackgrass plant response rating (0 to 10 scale) (blackgrass; [3]) | Blackgrass plant response rating (blackgrass; [4]) | Blackgrass plant response rating (blackgrass; [7]) | Plant response rating, Blackgrass (blackgrass; [6]) | Blackgrass plant response rating (blackgrass; [8]) | B. signalgrass plant response rating (surinam grass; [1]) | B. signalgrass plant response rating (surinam grass; [2]) | B. signalgrass plant response rating (surinam grass; [7]) | Plant response rating, B. signalgrass (surinam grass; [6]) | B. signalgrass plant response rating (surinam grass; Rate 500 g/ha, Postemergence, scale 0 to 10, 0 no effect, 10 complete control) | Cocklebur plant response rating (cocklebur; [1]) | Cocklebur plant response rating (cocklebur; [2]) | Cocklebur plant response rating (0 to 10 scale) (cocklebur; [3]) | Cocklebur plant response rating (cocklebur; [4]) | Cocklebur plant response rating (cocklebur; [5]) | Cocklebur plant response rating (cocklebur; [7]) | Crabgrass plant response rating (crabgrass; [1]) | Crabgrass plant response rating (crabgrass; [7]) | Giant foxtail plant response rating (giant foxtail; [1]) | Giant foxtail plant response rating (giant foxtail; [7]) | Plant response rating, Giant foxtail (giant foxtail; [6]) | Giant foxtail plant response rating (giant foxtail; [8]) | Morningglory plant response rating (morningglory; [2]) | Morningglory plant response rating (0 to 10 scale) (morningglory; [3]) | Morningglory plant response rating (morningglory; [4]) | Morningglory plant response rating (morningglory; [5]) | Morningglory plant response rating (morningglory; [7]) | Redroot pigweed plant response rating (pigweed; [1]) | Redroot pigweed plant response rating (pigweed; [2]) | Redroot pigweed plant response rating (0 to 10 scale) (pigweed; [3]) | Redroot pigweed plant response rating (pigweed; [7]) | Plant response rating, Redroot pigweed (pigweed; [6]) | Sugarbeets plant response rating (sugar beet; [1]) | Sugarbeets plant response rating (sugar beet; [2]) | Sugarbeets plant response rating (0 to 10 scale) (sugar beet; [3]) | Sugarbeets plant response rating (sugar beet; [4]) | Sugarbeets plant response rating (sugar beet; [5]) | Sugarbeets plant response rating (sugar beet; [7]) | Velvetleaf plant response rating (velvetleaf; [2]) | Velvetleaf plant response rating (0 to 10 scale) (velvetleaf; [3]) | Velvetleaf plant response rating (velvetleaf; [4]) | Velvetleaf plant response rating (velvetleaf; [5]) | Plant response rating, Velvetleaf (velvetleaf; [6]) | Wheat plant response rating (wheat; [2]) | Wheat plant response rating (0 to 10 scale) (wheat; [3]) | Wheat plant response rating (wheat; [4]) | Wheat plant response rating (wheat; [5]) | Plant response rating, Wheat (wheat; [6]) | Wheat plant response rating (wheat; [8]) | Wild oats plant response rating (wild oat; [2]) | Plant response rating, Wild oats (wild oat; [6]) | Wild oats plant response rating (wild oat; [8]) | Nutsedge plant response rating (purple nutsedge; [1]) | Nutsedge plant response rating (purple nutsedge; [2]) | Nutsedge plant response rating (0 to 10 scale) (purple nutsedge; [3]) | Nutsedge plant response rating (purple nutsedge; [4]) | Nutsedge plant response rating (purple nutsedge; [5]) | Nutsedge plant response rating (purple nutsedge; [7]) | Plant response rating, Nutsedge (purple nutsedge; [6]) | Nutsedge plant response rating (purple nutsedge; [8]) | Rice plant response rating (rice; [9]) | Rice plant response rating (rice; [10]) | Plant response rating, Rice (rice; [11]) | Rice plant response rating (rice; [12]) | Ducksalad plant response rating (duck salad; [9]) | Ducksalad plant response rating (duck salad; [10]) | Plant response rating, Ducksalad (duck salad; [11]) | Ducksalad plant response rating (duck salad; [12]) | Barnyardgrass plant response rating (bamyardgrass; [9]) | Barnyardgrass plant response rating (bamyardgrass; [10]) | Plant response rating, Barnyardgrass (bamyardgrass; [11]) | Barnyardgrass plant response rating (bamyardgrass; [12])
7: Bedstraw plant response rating (bedstraw; [1]) | Crabgrass plant response rating (0 to 10 scale) (crabgrass; [3]) | Crabgrass plant response rating (crabgrass; [8]) | Giant foxtail plant response rating (0 to 10 scale) (giant foxtail; [3])
2: Blackgrass plant response rating (blackgrass; [5]) | Crabgrass plant response rating (crabgrass; [2]) | Plant response rating, Crabgrass (crabgrass; [6]) | Plant response rating, Morningglory (morningglory; [6]) | Morningglory plant response rating (morningglory; [8]) | Plant response rating, Sugarbeets (sugar beet; [6]) | Sugarbeets plant response rating (sugar beet; [8]) | Wild oats plant response rating (0 to 10 scale) (wild oat; [3])
1: B. signalgrass plant response rating (0 to 10 scale) (surinam grass; [3]) | Morningglory plant response rating (morningglory; [1])
3: B. signalgrass plant response rating (surinam grass; [4]) | Plant response rating, Cocklebur (cocklebur; [6]) | Cocklebur plant response rating (cocklebur; [8]) | Velvetleaf plant response rating (velvetleaf; [8])
8: Plant response rating, Bedstraw (bedstraw; [6])
6: Redroot pigweed plant response rating (pigweed; [5])
